Peptide text beside a SMILES is read from it. * marks the point of attachment. Cbz = O=C(OCc1ccccc1)*
Key:
Assay type in all cases: cell-based, murine
[1] = system: βCTF levels in L/APP cells (L cell line overexpressing human APP695); assay: βCTF ELISA (C1/6.1 capture, JRF/AβN/25 detection) on cell lysates; settings: for reduction of βCTF levels relative to control: 10 μg/ml for 6 hours (FIG. 10B); for βCTF levels: control 2.7 (FIG. 8A)
Description: (§1) Cell lines, cDNA constructs, and transfections. Ltk-cells (a murine fibroblast-like cell line; (S. Kit et al., 1967, J. Virol., 1(1): 238-240) were maintained at 37° C. and 5% CO2 in high glucose DMEM, (Celigro, Hedon, Va.) supplemented to contain 10% fetal bovine serum (Gemini, Woodland, Calif.), 2 mM glutamax I (Gibco/BRL, Gaithersburg, Md.), and penicillin/streptomycin (Celigro). cDNAs encoding human APP695 and human rab5 were inserted into the mammalian expression vector pcDNA3 (Invitrogen, Carlsbad, Calif.). Following transfection using lipofectin (manufacturer's protocol; Gibco/BRL), stable L cell lines overexpressing APP695 were selected in 400 μg/ml G418 (Gemini) and screened for expression. Transient transfections with rab5 were done using lipofectAMINE (Gibco/BRL) or fugene (Boehringer-Mannheim, Indianapolis, Ind.) according to the manufacturers' protocol.
(§2) Sandwich ELISAs. Sandwich ELISAs using the antibodies as presented in Table 1 were performed essentially as has been reported (C. Janus et al. Id.; R. Rozmahel et al., Neurobiology of Aging, 23:187-194; and P. M. Mathews et al., 2002, J. Biol. Chem., 277: 5299-5307), with modifications to detect cell-associated APP metabolites. The wells of Nunc-Immuno PIates (Nunc A/S, Roskilde, Denmark) were coated overnight at 4° C. using 20 μg/ml of C1/6.1 and the remaining protein binding sites were blocked by incubating with 1% Block Ace (Yukijirushi Milk, Sapporo Japan) in PBS (200 μl/well) for 4 hours at room temperature.
(§3) For the βCTF ELISA, a synthetic peptide was prepared, i.e., […], (SEQ ID NO:1), that contains both the JRF/AβN/25 epitope (SEQ ID NO:4) and the C1/6.1 epitope (SEQ ID NO:2), (see Table I). For the APP/total CTF ELISA, a glutathione S-transferase fusion protein containing the C-terminal 99 residues of human APP (GST-βPP672-770; (K. Islam and E. Levy, 1997, Am. J. Pathol. 151(1):265-71) was prepared. This fusion protein contains both the C1/6.1 and C2/7.1 epitopes. These standards, prepared as stock solutions, were dissolved in DMSO, stored at −70° C., and were further diluted in buffer containing 20 mM Na phosphate, 2 mM EDTA,. 400 mM NaCl, 0.2% BSA, 0.05% CHAPS, 0.4% Block Ace and 0.05% NaN3, pH 7.0 immediately, prior to use.
(§4) ELISA plates were incubated overnight at 4° C. with samples and standards. Samples, as described herein, were cell lysates prepared in 1% Triton X-100®, 140 mM NaCl, 25 mM Tris (pH 7.4), 0.5 mM EDTA, and protease inhibitors. Lysates were vortexed briefly, allowed to rest on ice for 30 minutes, and centrifuged at 6,000 rpm in an Eppendorf centrifuge. The supernatant was used for the ELISA. Following overnight binding of APP and APP metabolites to the capture antibody (C/1/6.1), the wells were washed twice with phosphate buffered saline (PBS) containing 0.5% Triton X-100®/0.05% Tween-20 followed by two washes with PBS. A solution containing 20 mM Na phosphate, 2 mM EDTA, 400 mM NaCl, and 1% BSA, pH 7.0 was then added to the wells for 1 hour at room temperature.
(§5) APP and cell-associated APP metabolites were detected by incubating for 4 hours at room temperature with horseradish peroxidase (HRP)-conjugated C2/7.1 or JRF/AβN/25 diluted in 20 mM Na phosphate, 2 mM EDTA, 400 mM NaCl, 1% BSA, pH 7.0. Thereafter, the wells were again washed twice with phosphate buffered saline (PBS) containing 0.5% Triton X-100®/0.05% Tween-20, followed by two washes with PBS. ELISA plates were developed using a color reaction (TMB Microwell Peroxidase Substrate System, Kirkegaard & Perry, Gaithersburg, MD) and the OD450 was read. ELISA signals are reported as the mean ±SE of two or more wells in femtomoles per ml relative to standard.
(§6) Preparation of cell lysates for ELISA. Cells were seeded into 6-well dishes and allowed to settle overnight. […]

[2] = system: APP holoprotein and all CTFs in L/APP cells; assay: APP/total CTF ELISA (C1/6.1 capture, C2/7.1 detection) on L/APP cell lysates; settings: for cellular APP levels (APP/total CTF) relative to untreated control cells: 10 μg/ml for 6 hours (FIG. 10A)
Description: as §1, §2, §3, §4, §5, §6

[3] = system: Aβ1-40 secreted by L/APP cells; assay: Aβ1-40 ELISA of growth media; settings: 10 μg/ml, 6 hour incubation (FIG. 10C)
Description: L/APP cells were plated at equal density and APP expression was induced. Cells were then incubated for 6 hours without treatment, or with the addition of 10 μg/ml cyclohexamide or 10 μg/ml 3-methyl adenine (3MA). APP/total CTF levels (FIG. 10A) and βCTF levels (FIG. 10B) in cell lysates were then determined by ELISA. Aβ1-40 (FIG. 10C) and Aβ1-42 (FIG. 10D) levels secreted into the growth media during this 6 hour incubation were determined by ELISA (C. Janus et al., 2000, Nature, 408(6815):979 982). Data are expressed as a percentage of, the level seen in untreated control cells for each assay.
In addition, Aβ levels in the growth media were examined from these test cells. […] Again, the reduction in Aβ generation obtained with cyclohexamide treatment is due to non-specific cytotoxicity, while the reduction in Aβ generation obtained following 3MA treatment is linked to a specific reduction in βCTF generation.

[4] = system: APP holoprotein, αCTF and βCTF in L/APP cells; assay: Metabolic pulse-chase labeling and immunoprecipitation of APP and CTFs; settings: for levels of αCTFs and βCTFs after 1 hour chase (C1/6.1 immunoprecipitation): 10 μM, 3 hours pretreatment plus pulse and chase (FIG. 1)
Description: Metabolic labeling, immunoprecipitation and Western blot analysis. To detect APP and CTFs, 5×10^5 cells were seeded onto 35-mm diameter tissue culture dishes followed by induction of human APP695 expression with 20 mM butyrate for 24 hours (P. M. Mathews et al., 1992, J. Cell. Biol., 118(5):1027-1040; P. M. Mathews et al., 2000 Mol Med., 6(10)878-891). Cultures were methionine/cysteine starved for 20 minutes, pulse-labeled for 15 minutes with 100 μCi/ml TRANS^35S-LABEL (Dupont-NEN), washed, and chased in complete medium containing 2 mM unlabeled methionine (P. M. Mathews et al., 1992, J. Cell. Biol., 118(5):1027-1040). Calpain inhibitors, as described herein, were added to the growth medium 3 hours prior to methionine/cysteine starvation and then throughout pulse-labeling and chase.
Cell lysates (prepared in 1% Triton X-100, 140 mM NaCl, 25 mM Tris pH 7.4, 0.5 mM EDTA, 10 mM methionine and protease inhibitors; (P. M. Mathews et al., 1992, J. Cell. Biol., 118(5):1027-1040; A. Beggan et al., 1996, J. Biol. Chem., 271(34):20895-20902) were subjected to immunoprecipitation with various monoclonal antibodies as described in Example 2. Immunoprecipitated proteins were sized by SDS-PAGE and labeled proteins were visualized by exposure to x-ray film and analyzed quantitatively using a Storm 840 phosphorimager (Molecular Dynamics/Amersham Biosciences, Sunnyvale, Calif. and/or by scan analysis (NIH Image).
To determine whether a particular monoclonal antibody detected APP holoprotein and/or αCTF and/or βCTF or both, L cells overexpressing human APP695 (L/APP cells) were metabolically labeled for 15 minutes, and then were chased for 1 hour (FIG. 1, lanes 1-6).
Thus, in addition to control conditions, cells were treated for 3 hours prior to, as well as during, the pulse and chase periods with the indicated calpain inhibitors (FIG. 1, lanes 7-18) to increase the levels of metabolically labeled CTFs prior to immunoprecipitation. Equal volumes of detergent lysates prepared from the pulse and chase periods were subjected to immunoprecipitation with each of the monoclonal antibodies and labeled APP species were resolved on 4-20% gradient SDS-PAGE.
The pulse-chase experiment shown in FIGS. 2A and 2B was designed to determine if C1/6.1 was able to detect other species of CTFs (e.g. the γCTF). Accordingly, L/APP cells were pulse-labeled for 15 minutes and chased for the indicated times up to 6 hours prior to immunoprecipitation of lysates with C1/6.1.

[5] = system: APP holoprotein and all CTFs in parental L cells; assay: APP/total CTF ELISA on parental L cell lysates; settings: 10 μM calpeptin 6 hours (FIG. 7B)
Description: as §1
Sandwich ELISAs. […]
APP and cell-associated APP metabolites were detected by incubating for 4 hours at room temperature with horseradish peroxidase (HRP)-conjugated C2/7.1 or JRF/AβN/25 diluted in 20 mM Na phosphate, 2 mM EDTA, 400 mM NaCl, 1% BSA, pH 7.0. […] ELISA plates were developed using a color reaction (TMB Microwell Peroxidase Substrate System, Kirkegaard & Perry, Gaithersburg, MD) and the OD450 was read. […]

APP CTFs in L/APP cells = assay: Western blot analysis using C1/6.1; settings: 10 μm calpeptin 6 hours (FIG. 5A)
Description: For Western blot analysis, protein concentration in cell lysates was determined (BioRad DC Protein Assay, BioRad, Rockville Center, N.Y.), and equal amounts of proteins were separated by SDS-PAGE and transferred to PVDF membrane. Membranes were incubated in C1/6.1 (2 μg/ml) overnight, washed, and incubated with HRP-conjugated goat anti-mouse IgG for 1.5 hours. Membranes were incubated in ECL substrate (Amersham, Arlington Heights, Ill.) and exposed to x-ray film.
In this rab5 overexpression experiment, L/APP cells were transiently-transfected with no DNA (FIG. 5A, lanes 1 and 2), or rab5 cDNA (FIG. 5A, lanes 3-5) and the levels of APP holoprotein and CTFs were determined by Western blot analysis using C1/6.1 (FIG. 5A).

[6] = 75 μg/ml cyclohexamide 6 hours, versus control

Cn1cnc(N)c2ncnc1-2 [3MA, 3-methyl adenine]
reduction of βCTF levels relative to control [1]: 50% | cellular APP levels (APP/total CTF) relative to untreated control cells [2]: did not reduce cellular APP levels | Aβ1-40 levels in growth media relative to control [3]: reduction in Aβ1-40 levels relative to control

CC(C)[C@H](NC(=O)OCc1ccccc1)C(=O)N[C@H](C=O)Cc1ccccc1 [calpain inhibitor III] (Cbz-Val-Phe-aldehyde)
levels of αCTFs and βCTFs after 1 hour chase (C1/6.1 immunoprecipitation) [4]: substantial and apparently proportionate increase in the levels of both αCTFs and βCTFs

CCCC[C@@H](C=O)NC(=O)[C@H](CC(C)C)NC(=O)OCc1ccccc1 [calpeptin]
βCTF levels ([1]; 10 μM calpeptin 6 hours): 5.4 fmol/mL | amount of βCTFs detected by ELISA ([1]; 10 μM calpeptin 6 hours, untreated 16.1 (FIG. 5B)): 26.0 fmol/mL | βCTF levels detected by ELISA ([1]; 10 μM calpeptin for 6 hours, untreated 5.8±0.3 (FIG. 4)): 10.0 ± 0.6 fmol/mL | APP/total CTF ELISA signal ([2]; 10 μM calpeptin 6 hours (FIG. 7B)): greatly increased the ELISA signal | change in APP/total CTF levels ([2]; 10 μM calpeptin 6 hours (FIG. 8B)): smaller relative increase in APP/total CTF levels | APP/total CTF ELISA signal [5]: increased the signal in the L cells, although not to a statistically significant degree | generation of α and βCTFs during the initial 1 hour of chase ([4]; 10 μM calpeptin (FIG. 2B)): substantially increased the generation of both α and βCTFs | turnover of CTFs ([4]; 10 μM calpeptin (FIG. 2B)): did not appear to reduce the turnover of CTFs | turnover of APP holoprotein ([4]; 10 μM calpeptin, chase up to 6 hours (FIG. 2A)): unchanged | levels of αCTFs and βCTFs after 1 hour chase (C1/6.1 immunoprecipitation) [4]: substantial and apparently proportionate increase in the levels of both αCTFs and βCTFs | levels of CTFs by Western blot (APP CTFs in L/APP cells): greatly increased the levels of CTFs detected

C[C@@H]1C[C@@H]([C@H](O)CC2CC(=O)NC(=O)C2)C(=O)[C@@H](C)C1 [cyclohexamide]
reduction of βCTF levels relative to control [1]: reduced βCTF levels somewhat more | βCTF levels ([1]; 75 μg/ml cyclohexamide 6 hours): 0.6 fmol/mL | reduction of βCTF levels [1, 6]: 78% | cellular APP levels (APP/total CTF) relative to untreated control cells [2]: cyclohexamide treatment did | APP/total CTF levels ([2]; 75 μg/ml cyclohexamide 6 hours, control 608 (FIG. 8B)): 74 fmol/mL | reduction of APP/total CTF levels [2, 6]: 88% | Aβ1-40 levels in growth media relative to control [3]: reduction in Aβ1-40 levels relative to control

Source: patent publication US20040253647A1, “Cell-based high-throughput screening methods” (priority 2001, published 2004)
